Laboratory results taken from US20190183812A1, “Compounds For The Treatment Of Neuromuscular Disorders” (NMD PHARMA A/S, priority 2017, published 2019).
Where a name gives a salt, the structure may show the parent alone. Read-outs that look alike come from different tables or passages of the source.

Tests used:
rat soleus muscles [1] = test: Mg2+ concentration required to depress nerve-stimulated force by 50% (Kd,Mg2+), combination with 3,4-AP; details: 3,4-AP (10 μM) alone
Procedure: FIGS. 6A-6E. […] Muscles from 4-week-old rats were stimulated to contract by activating the motor nerve with short duration pulses in field stimulation. Muscles contracted every 10 min for 2 s in response to 30 Hz stimulation. Four different experimental conditions were used. […] C) similar to A) but this muscle had been pre-incubated with 3,4-AP. […] The force integral (AUC) was determined at each extracellular Mg^2+ concentration. AUC was plotted against Mg^2+ concentration and the data was fitted to a sigmoidal function. This provided the extracellular Mg^2+ concentration that was required to reduce the nerve-stimulated force to 50% (Mg50) under the four different conditions (see Table 5).
While the use of tubocurarine mimics conditions with reduced neuromuscular transmission due to post-synaptic dysfunction (myasthenia gravis, neuromuscular blockade), the experiments with elevated extracellular Mg^2+ mimics conditions with pre-synaptic dysfunction akin to a range of neuromuscular disorders including Lambert Eaton syndrome, motor neuron disorders and polyneuropathy. Patients with Lambert Eaton syndrome are commonly treated with inhibitors of voltage gated K^+ channels such as 3,4-diaminopyridine (3,4-AP). Based on this it was determined whether recovery of nerve-stimulated force at elevated extracellular Mg^2+ with CIC-1 inhibiting compounds could be added to force recovery with 3,4-AP. […] FIG. 6A-D show recordings of nerve-stimulated force production at different Mg^2+ concentrations when tested under these four experimental conditions. […] To quantify the effect of compounds on Mg^2+ sensitivity the force at the different Mg^2+ concentrations was determined. In plots of nerve-stimulated force against Mg^2+ concentration (FIG. 6E) the Kd,Mg^2+ was determined by fitting four parameter sigmoidal function to the data. Kd, Mg^2+ for the different compounds have been collected in Table 5.

[2] = tested on: isolated rat soleus muscles; test: Recovery of nerve-stimulated force in isolated rat soleus muscles at elevated extracellular Mg2+ (3.5 mM)
Procedure: (§1) Experiments were performed using rat soleus muscles from either young (4-wk-old) or adult Wistar rats (12-14-week-old). Animal handling, killing and isolation of muscle is described elsewhere All experiments were performed using normal Krebs-Ringer bicarbonate solution (NKR). In solutions with elevated Mg^2+, MgCl2 was added to NKR-solution causing minor increases in osmolarity and ionic strength. In solutions with elevated K^+, 4 mM NaCl was replaced by 4 mM KCl in the NKR.
(§2) In all contraction experiments, isometric force production was determined and force produced during contractions was quantified by measuring the integral of the force response (AUC). Stimulation and force recordings have been described elsewhere. […] In these latter experiments, extracellular recordings of action potentials (M-waves) could be measured without temporal overlap with stimulation artefacts.
The aim was to find compounds that by inhibition of CIC-1 channels can recover nerve-stimulated force under conditions of fatigue including conditions where fatigue is caused by compromised neuromuscular transmission. […]
The next series of experiments determined whether the compounds that recovered nerve-stimulated force in the presence of tubocurarine could also recover nerve-stimulated force at elevated extracellular Mg^2+.

[3] = tested on: isolated rat soleus muscles; test: Recovery of nerve-stimulated force in isolated rat soleus muscles exposed to sub-maximal tubocurarine
Procedure: as §1, §2
The aim was to find compounds that by inhibition of CIC-1 channels can recover nerve-stimulated force under conditions of fatigue including conditions where fatigue is caused by compromised neuromuscular transmission. Neuromuscular transmission dysfunction can develop because of both pre- and/or post-synaptic complications in connection with a disorder or as part of neuromuscular blockade during/after surgery. In the initial series of drug testing, experiments were performed with isolated muscles in the presence of sub-maximal ACh receptor antagonist tubocurarine. Since the inclusion of tubocurarine caused a partial loss of neuromuscular transmission this experiment mimics the conditions in myasthenia gravis and neuromuscular blockade. To mimic conditions with pre-synaptic complication (Lambert Eaton syndrome, motor neuron disorder, polyneuropathy) the intact nerve-muscle preparations were incubated at elevated extracellular Mg^2+, which is known to suppress release of ACh from nerve terminals of motor neurons.
To identify CIC-1 inhibitors that could be used for treatment of neuromuscular disorders we repeated the experiment shown in FIG. 2A but instead of adding 9-AC we added the compounds of interest in different concentrations within the range from 10 to 500 μM. […] For comparison with the muscle only exposed to tubocurarine (grey trace), the two traces have been overlaid. […] For comparison, muscles only exposed to tubocurarine have been included. The dotted line indicates the recovery of force with C8 when compared to the force production before its addition. This value was used in Table 1 for evaluation of the efficacy of the different compounds in recovering force.

human CIC-1 channels = biological target: T1, human CIC-1 channels (Homo sapiens, UniProt P35523); test: Automated patch-clamp on human CIC-1 expressed in CHO cells; assay type: cell-based; details: compound added to the intracellular solution vs vehicle control patches; positive shift reflects CIC-1 inhibition
T1 construct: host or cells: CHO (Chinese hamster ovary) cells
T1 sequence (P35523 whole entry): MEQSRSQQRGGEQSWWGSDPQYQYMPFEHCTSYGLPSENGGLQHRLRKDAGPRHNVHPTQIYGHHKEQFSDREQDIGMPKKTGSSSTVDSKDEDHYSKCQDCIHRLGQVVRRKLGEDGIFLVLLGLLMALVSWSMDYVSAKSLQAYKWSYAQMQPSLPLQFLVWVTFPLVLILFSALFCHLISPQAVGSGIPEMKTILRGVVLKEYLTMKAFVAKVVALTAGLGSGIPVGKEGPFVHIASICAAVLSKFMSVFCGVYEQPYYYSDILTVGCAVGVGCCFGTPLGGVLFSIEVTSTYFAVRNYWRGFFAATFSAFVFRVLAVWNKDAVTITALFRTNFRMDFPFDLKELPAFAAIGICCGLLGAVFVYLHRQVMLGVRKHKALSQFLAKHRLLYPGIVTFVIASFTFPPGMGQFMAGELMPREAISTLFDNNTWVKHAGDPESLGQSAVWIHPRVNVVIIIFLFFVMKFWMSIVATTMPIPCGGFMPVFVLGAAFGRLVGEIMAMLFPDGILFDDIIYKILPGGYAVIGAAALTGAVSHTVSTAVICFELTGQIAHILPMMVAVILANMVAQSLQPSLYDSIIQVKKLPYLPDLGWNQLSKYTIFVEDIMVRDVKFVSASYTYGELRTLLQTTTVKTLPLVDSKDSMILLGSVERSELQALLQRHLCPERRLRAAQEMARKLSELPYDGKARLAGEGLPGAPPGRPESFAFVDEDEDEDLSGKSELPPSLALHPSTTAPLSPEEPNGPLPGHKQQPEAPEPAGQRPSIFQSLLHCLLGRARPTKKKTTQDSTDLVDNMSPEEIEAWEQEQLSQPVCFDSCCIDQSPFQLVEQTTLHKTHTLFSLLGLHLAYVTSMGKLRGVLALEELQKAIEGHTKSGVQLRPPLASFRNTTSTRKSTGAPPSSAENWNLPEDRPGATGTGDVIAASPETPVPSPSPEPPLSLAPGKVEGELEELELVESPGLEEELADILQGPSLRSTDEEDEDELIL
Procedure: The investigatory goal of these experiments was to evaluate how compounds affect the open probability and current amplitude of human CIC-1 channels expressed in CHO cells. Experiments were performed using an automated patch clamp system that allowed high throughput testing of whole cell patches together with both intracellular and extracellular addition of compound.
Automated whole cell patch clamp experiments were performed with the Qpatch 16 system (Sophion Bioscience, Ballerup, Denmark) at room temperature. Data acquisition and analysis were performed in the Qassay software (ver. 5.6, Odense).
To evoke CIC-1 currents in whole cell patches, the membrane potential was initially stepped from a holding potential of −30 mV to +60 mV for 100 ms and then to various test voltages (sweeps) ranging from +120 mV to −140 mV in steps of 20 mV for 300 ms. To obtain tail currents, the membrane potential was stepped to −100 mV after each test voltage for 300 ms and then relaxed to −30 mV for 2 sec between sweeps (FIG. 3). I/V relationships for whole cell instant and steady state current amplitudes were obtained by plotting average current densities at the beginning and at the end of the 300 ms step against the membrane potential (FIG. 4).
In order to determine the relative overall open probability (P0), the instantaneous tail currents were normalized to the maximal tail current obtained following the most positive voltage step and plotted against the test voltage. Plots of normalized tail currents from each whole cell patch were then fitted to a Boltzmann function allowing determination of half activation voltages (V1/2, FIG. 5).
For automated patch clamp experiments extracellular solutions contained: 2 mM CaCl2, 1 mM MgCl2, 10 mM HEPES, 4 mM KCl, 145 mM NaCl, 10 mM Glucose, pH adjusted to 7.4 with NaOH (2 M). Osmolality adjusted to ˜320 using sucrose.
Intracellular solutions contained: 80 mM CsF, 60 mM CsCl, 5/1 mM KOH/EGTA, 10 mM HEPES, 10 mM NaCl, pH adjusted to 7.2 with NaOH (2 M). Osmolality adjusted to ˜320 mOsm using sucrose.
Cells used in patch clamp experiments were Chinese hamster ovary cells (CHO) constitutively expressing human CIC-1 channels. The amino acid sequence encoded by the cDNA used to create this cell line was identical to the translated sequence for GenBank accession number NM_000083.2. Cells were produced by Charles River (Catalogue CT6175, Cleveland Ohio, USA) in a cryopreserved format. Experiments were performed on the cells directly after thawing (3×10^6 cells used in each experiment).
To evaluate the compound effect on CIC-1, when applied directly to the intracellular side of the cell membrane, the half activation voltage, V1/2, was determined from whole cell patches with compound added to the intracellular solution and then compared to V1/2 determined from control cell patches with only vehicle added to the intracellular solution. Additionally, the effect of extracellular added compound was evaluated by determine V1/2 and steady state current amplitudes before and after exchanging the extracellular solution to contain compound.
The difference in half activation voltage of CIC-1 channels, […]V1/2, was determined as the difference between the cell patches treated intracellularly with compound and control cells patches and is reported in Table 4 below. A positive shift in […]V1/2 is reflecting CIC-1 channel inhibition by the tested compound. P-values of <0.05 is considered significant.

rat soleus muscles [4] = test: Tubocurarine concentration required to depress nerve-stimulated force by 50% (Kd,tub), combination with acetylcholinesterase inhibitors
Procedure: FIGS. 5A-5E. […] Muscles from 4-week-old rats were stimulated to contract by activating the motor nerve with short duration pulses in field stimulation. Muscles contracted every 10 min for 2 s in response to 30 Hz stimulation. Four different experimental conditions were used. […] After this pre-incubation, increasing concentrations of tubocurarine were added to the bath solutions with 60 min (corresponding to six contractions) between each increase in tubocurarine. […] FIG. 5C similar to FIG. 5A but this muscle had been pre-incubated with neostigmine. […] The force integral (AUC) was determined at each tubocurarine concentration. Such AUC determinations were plotted against tubocurarine concentration for each muscle.
CIC-1 is a novel target in treatment of neuromuscular complications and it was therefore explored whether this approach for symptomatic treatment could be used in combination with existing symptomatic treatment approaches. In myasthenia gravis, which in isolated muscles was mimicked by tubocurarine, the symptoms of muscle fatigue are most commonly treated with inhibitors of acethylcholineesterase of which neostigmine and pyridostigmine are examples. Also, neostigmine is the most commonly used reversal agent of neuromuscular blocked after surgery. […] FIG. 5A-D show recordings of nerve-stimulated force production at different tubocurarine concentrations when tested under the four experimental conditions. […] To quantify the effect of compounds on tubocurarine sensitivity, the force at the different tubocurarine concentrations was determined. In plots of nerve-stimulated force against tubocurarine concentration (FIG. 5E) Kd,tub was determined by fitting four parameter sigmoidal functions to the data and the Kd,tub for the different compounds have been collected in Table 4.

[5] = Rattus norvegicus, 40 min; read-out: 50 μM % change after addition

| SMILES | ΔV½ (human CIC-1 channels) [mV] | activation at 50 µM [3, 5] [%] | further results |
| --- | --- | --- | --- |
| Nc1ccncc1N [3,4-AP, 3,4-diaminopyridine, reference compound] |  |  | Kd (rat soleus muscles [1]): 5800 ± 300 µM |
| O=C(O)c1c2ccccc2cc2ccccc12 [Compound 9-AC, 9-anthracenecarboxylic acid, reference compound] |  |  | recovery of force and M-wave signal [2]: marked recovery of both force and M-wave signal; recovery of force and M-wave signal ([3]; tubocurarine): marked recovery of both force and M-wave signal |
| C[C@H](Oc1ccc(Cl)cc1C1CC1)C(=O)O [Compound A-4, (2S)-2-(4-chloro-2-cyclopropylphenoxy)propanoic acid] | 8.8 |  |  |
| C=Cc1cc(Br)ccc1O[C@@H](C)C(=O)O [Compound A-17, (2S)-2-(4-bromo-2-ethenylphenoxy)propanoic acid] | 10.3 |  |  |
| C#Cc1cc(Br)ccc1O[C@@H](C)C(=O)O [Compound A-19, (2S)-2-(4-bromo-2-ethynylphenoxy)propanoic acid] | 7.7 |  |  |
| C#Cc1cc(Cl)ccc1O[C@@H](C)C(=O)O [Compound A-20, (2S)-2-(4-chloro-2-ethynylphenoxy)propanoic acid] | 26.4 |  |  |
| CCC(=O)c1cc(Cl)ccc1O[C@@H](C)C(=O)O [Compound A-30, (2S)-2-(4-chloro-2-propanoylphenoxy)propanoic acid] | 6.2 |  |  |
| C[C@H](Oc1ccc(Br)cc1C=C(F)F)C(=O)O [Compound A-36, (2S)-2-[4-bromo-2-(2,2-difluoroethenyl)phenoxy]propanoic acid] | 21.5 |  |  |
| C[C@H](OCc1ccccc1)C(=O)O [Compound C5, (2S)-2-(benzyloxy)propanoic acid] |  | -7 |  |
| CC(C(=O)O)S(=O)(=O)c1ccc(F)cc1 (centres unmarked) [Compound C6, 2-(4-fluorobenzenesulfonyl)propanoic acid] |  | -11 |  |
| CCC(Oc1ccc(Cl)cc1)C(=O)O (centres unmarked) [Compound C7, 2-(4-chlorophenoxy)butanoic acid] |  | -12 |  |
| NCC(Oc1ccc(F)cc1)C(=O)O (centres unmarked) [Compound C9, 3-amino-2-(4-fluorophenoxy)propanoic acid hydrochloride] |  | -14 |  |
| CC(Oc1ccc(Cl)cc1)C(=O)Oc1ccc(Cl)cc1 (centres unmarked) [Compound C11, 4-chlorophenyl 2-(4-chlorophenoxy)propanoate] |  |  | activation at 50 µM ([3]; Rattus norvegicus, 40 min, read-out: 50 μM % change after addition): 46% |
| COCC(C)C(Oc1ccc(Br)cc1)C(=O)O (centres unmarked) [Compound C21, 2-(4-bromophenoxy)-4-methoxy-3-methylbutanoic acid] |  | -3 |  |
| CN(C)C(=O)Oc1cccc([N+](C)(C)C)c1 [Neostigmine, neostigmine, reference compound] |  |  | Kd (rat soleus muscles [4]; Neostigmine (10 nM) alone): 0.166 ± 0.013 µM |
| CN(C)C(=O)Oc1ccc[n+](C)c1 [Pyridostigmine, pyridostigmine, reference compound] |  |  | Kd (rat soleus muscles [4]; Pyridostigmine (100 nM) alone): 0.127 ± 0.015 µM |
